Measurements published in US9724397B2, “Sustained release formulations comprising very low molecular weight polymers” (IPSEN PHARMA S.A.S., priority 2006, dated 2017).

Test: In-vivo release assay in Beagle dogs with a VLMW polymer not end-capped
Settings: 10% BIM21003 in PLGA 50/50 ended by carboxylic acid group (J001/3000013), intramuscular, about 3.6 mg per animal, RIA
Experimental: An in-vivo assay was performed with a semi-solid formulation of 10% BIM21003 using a PLGA 50/50 ended by a carboxylic acid group (J001/3000013 batch, see table 1). The preparation of the formulation was achieved by a push-pull kneading process with 2 syringes at about 50° C. as described in example 6. The mixture (bulk product) was conditioned in a 0.3 ml single-dose syringes coupled with 20×1.4 mm needles thereafter packed in individual aluminium sealed bags, and sterilized by gamma-irradiation at 25 kGy in dry ice.
Six male Beagle dogs were administered intramuscularly with single-dose syringes previously heated at 50° C. for 3 min in order to improve its fluidity and facilitate its injection. Syringes were weighted before and after administration, and the injected dose of BIM21003 was calculated to be about 3.6 mg per animal.
Four-ml blood samples were obtained from cephalic veins at specified time intervals post-administration. The blood samples were placed in tubes containing an anticoagulant (15% EDTA.K3 aqueous solution) and a preservative (Trasylol®). After centrifugation, plasma was removed and samples were stored below −20° C. until RIA analysis.

CC(C)C[C@H](NC(=O)[C@@H](Cc1c[nH]c2ccccc12)NC(=O)[C@H](Cc1ccc(O)cc1)NC(=O)[C@H](CO)NC(=O)[C@H](Cc1c[nH]c2ccccc12)NC(=O)[C@H](Cc1c[nH]cn1)NC(=O)[C@@H]1CCC(=O)N1)C(=O)N[C@@H](CCCNC(=N)N)C(=O)N1CCC[C@H]1C(=O)NCC(N)=O [BIM-21003, triptorelin]
BIM-21003 plasma levels after 3 days post-administration: below the limit of quantification
